Results from patent US11452725B2, “Chiral diaryl macrocycles and uses thereof” (TURNING POINT THERAPEUTICS, INC., priority 2015, dated 2022).
Entries after “also recorded” stand apart in the source; their conditions may differ.

Columns and labels:
[1] = molecular target: T1, AXL (Homo sapiens, UniProt P30530); assay: Biochemical kinase assay (Reaction Biology); conditions: 10 μM ATP
T1 construct: purchased Reaction Biology Corporation (contract assay)
Description: (§2) Specific kinase/substrate pairs along with required cofactors were prepared in reaction buffer; 20 mM Hepes pH 7.5, 10 mM MgCl2, 1 mM EGTA, 0.02% Brij35, 0.02 mg/ml BSA, 0.1 mM Na3VO4, 2 mM DTT, 1% DMSO (for specific details of individual kinase reaction components see Supplementary Table 2). Compounds were delivered into the reaction, followed ˜20 minutes later by addition of a mixture of ATP (Sigma, St. Louis Mo.) and ^33P ATP (Perkin Elmer, Waltham Mass.) to a final concentration of 10 μM. Reactions were carried out at room temperature for 120 min, followed by spotting of the reactions onto P81 ion exchange filter paper (Whatman Inc., Piscataway, N.J.). […] IC50 values and curve fits were obtained using Prism (GraphPad Software).

[2] = molecular target: NPM-ALK (Homo sapiens, UniProt Q9UM73); assay: In vivo pharmacodynamics: ALK phosphorylation in Karpas 299 tumors (immunoblotting); parameters: species or system mice
Description: Mice bearing xenograft tumors were humanely euthanized and tumors were resected and snap frozen in liquid nitrogen and stored at −80° C. Frozen tumor samples were processed at 4° C. in 1× Cell Lysis Buffer (Cell Signaling Technologies) to extract proteins. SDS loading samples were prepared by adding one volume of 4×LDS Sample Buffer (Life Technologies, Inc) to three volumes of protein lysate. Tumor SDS protein samples were processed by SDS-PAGE and immunoblotted with rabbit anti-phosphorylated ALK and mouse anti-actin antibodies (Cell Signaling Technologies). The signals from immunoblot were detected by C-DiGit Blot Scanner from LI-COR and the signal intensity were quantified using the Image Studio Digit software (LI-COR).
The level of ALK phosphorylation was determined by immunoblotting combined with signal quantification by the Image Studio Digit Software. […] At the dose of 15 mg/kg, ALK phosphorylation was reduced to <10% of the control level at 3 hours post oral administration and was maintained at about 21% of the control level at 12 hours post dosing.

[3] = molecular target: T2, DDR2 (Homo sapiens, UniProt Q16832); assay: Biochemical kinase assay (Reaction Biology); conditions: 10 μM ATP
T2 construct: purchased Reaction Biology Corporation (contract assay)
Description: as §2

[4] = tested on: AKT; assay: Immunoblotting downstream signaling, Karpas-299 cells; type: cell-based; conditions: Homo sapiens, read-out: downstream AKT phosphorylation IC50
Description: (§1) NSCLC cell line H2228 (harboring endogenous EML4-ALK fusion gene), HCC78 cells (harboring endogenous SLC34A2-ROS1 fusion gene), Karpas-299 cells (harboring endogenous NPM-ALK fusion gene) or SET-2 (harboring endogenous JAK2V617F activating mutation) were cultured in RPMI medium, and KM12 (harboring endogenous TPM3-TRKA fusion gene) cell line was cultured in DMEM medium, both supplemented with 10% fetal bovine serum and 100 U/mL of penicillin/streptomycin. Ba/F3 and NIH3T3 cells stably expressing ALK or ROS1 (WT or mutant) were culture as mentioned above. […] Protein lysates (approximately 20 μg) was resolved on 4-12% Bolt Bis-Tris precasted gels with MES running buffer (Life Technologies), transferred to nitrocellulose membranes using Trans-Blot Turbo Transfer System (Bio-Rad) and detected with antibodies targeting phosphorylated ALK Y1604 (Cell Signaling Technology), total ALK (Cell Signaling Technology), phosphorylated ROS1 and total ROS1 (Cell Signaling Technology), phosphorylated TRK A/B (Cell Signaling Technology), total TRKA antibody (Santa Cruz Biotechnology), phosphorylated STAT3 and STAT5, total STAT3 and STAT5 (Cell Signaling Technology), phosphorylated AKT (Cell Signaling Technology), total AKT (Cell Signaling Technology), phosphorylated ERK (Cell Signaling Technology), total ERK (Cell Signaling Technology) and Tubulin (Sigma). […]

[5] = tested on: STAT3; assay: as above; type: cell-based; conditions: Homo sapiens, read-out: downstream STAT3 phosphorylation IC50
Description: as §1

[6] = molecular target: T3, DDR1 (Homo sapiens, UniProt Q08345); assay: Biochemical kinase assay (Reaction Biology); conditions: 10 μM ATP
T3 construct: purchased Reaction Biology Corporation
Description: as §2

[7] = tested on: CD44; assay: CD44 expression by immunoblotting in H2228 cells; type: cell-based, human; conditions: 48 hours treatment, 0-1000 nM
Description: NSCLC cell line H2228 (harboring endogenous EML4-ALK fusion gene) was cultured in RPMI medium supplemented with 10% fetal bovine serum and 100 U/mL of penicillin/streptomycin. Ba/F3 and NIH3T3 cells stably expressing ROS1, or TRKA, or TRKB, or TRKC (WT or mutant) were cultured as mentioned above. […] Cells were collected after treatment and lysed in RIPA buffer (50 mM Tris, pH 7.4, 150 mM NaCl, 1% NP-40, 0.5% Deoxycholate, 0.1% SDS) supplemented with 10 mM EDTA, 1× Halt protease and phosphatase inhibitors (Thermo Scientific). Protein lysates (approximately 20 μg) was resolved on 4-12% Bolt Bis-Tris precasted gels with MES running buffer (Life Technologies), transferred to nitrocellulose membranes using Trans-Blot Turbo Transfer System (Bio-Rad) and detected with antibodies targeting phosphorylated phosphorylated ROS1 and total ROS1 (Cell Signaling Technology), phosphorylated TRK A/B (Cell Signaling Technology), total TRKA antibody (Santa Cruz Biotechnology), phosphorylated SRC Y416 (Cell Signaling Technology), total SRC (Cell Signaling Technology), phosphorylated FAK Y576/577 (Cell Signaling Technology), total FAK (Cell Signaling Technology), phosphorylated paxillin Y118 (Cell Signaling Technology), total paxillin (Cell Signaling Technology), phosphorylated EGFR and total EGFR, CD44, and Tubulin (Sigma). […]

[8] = tested on: Ba/F3 + IL3 parental; assay: Cell proliferation assay (CellTiter-Glo); type: cell-based; conditions: Mus musculus, BaF3; parental cells with IL3
[9] = tested on: Ba/F3 TPR-ALK wild type cell line; assay: Cell proliferation assay at Advanced Cellular Dynamics (CellTiter-Glo); type: cell-based; conditions: Mus musculus, BaF3, 48 hours
[10] = molecular target: T4, RET (Homo sapiens, UniProt P07949); assay: Biochemical kinase assay (Reaction Biology); conditions: 10 μM ATP
T4 construct: purchased Reaction Biology Corporation (contract assay)
T4 sequence (P07949 29-1114): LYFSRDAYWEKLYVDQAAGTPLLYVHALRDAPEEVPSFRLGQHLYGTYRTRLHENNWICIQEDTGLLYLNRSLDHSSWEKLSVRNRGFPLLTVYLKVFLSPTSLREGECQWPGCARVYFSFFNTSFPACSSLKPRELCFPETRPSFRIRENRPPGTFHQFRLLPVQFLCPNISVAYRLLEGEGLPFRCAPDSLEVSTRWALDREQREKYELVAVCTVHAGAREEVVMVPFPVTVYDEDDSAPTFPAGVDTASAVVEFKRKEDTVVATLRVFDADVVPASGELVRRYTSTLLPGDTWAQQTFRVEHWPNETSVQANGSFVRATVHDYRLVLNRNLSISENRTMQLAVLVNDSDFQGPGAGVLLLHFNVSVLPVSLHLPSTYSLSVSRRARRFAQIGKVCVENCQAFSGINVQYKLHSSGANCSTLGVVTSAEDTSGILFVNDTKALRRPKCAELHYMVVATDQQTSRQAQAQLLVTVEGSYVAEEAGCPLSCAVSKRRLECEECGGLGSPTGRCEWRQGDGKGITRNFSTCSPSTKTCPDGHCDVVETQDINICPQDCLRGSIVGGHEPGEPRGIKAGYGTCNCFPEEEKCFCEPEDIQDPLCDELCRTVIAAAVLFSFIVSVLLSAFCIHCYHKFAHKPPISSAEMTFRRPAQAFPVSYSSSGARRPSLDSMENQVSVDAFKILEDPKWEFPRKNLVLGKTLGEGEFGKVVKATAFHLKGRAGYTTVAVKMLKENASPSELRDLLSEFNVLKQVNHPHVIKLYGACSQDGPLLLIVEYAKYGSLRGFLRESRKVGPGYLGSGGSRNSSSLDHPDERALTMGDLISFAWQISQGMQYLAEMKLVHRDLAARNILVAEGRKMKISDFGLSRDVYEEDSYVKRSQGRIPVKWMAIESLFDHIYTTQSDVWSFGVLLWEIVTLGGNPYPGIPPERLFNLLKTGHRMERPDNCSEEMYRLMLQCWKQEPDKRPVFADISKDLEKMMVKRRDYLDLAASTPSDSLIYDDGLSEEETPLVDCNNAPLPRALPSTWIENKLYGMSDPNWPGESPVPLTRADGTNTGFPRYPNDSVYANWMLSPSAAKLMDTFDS
Description: as §2

Sequence of NPM-ALK (Q9UM73 with tags, fused parts or gaps): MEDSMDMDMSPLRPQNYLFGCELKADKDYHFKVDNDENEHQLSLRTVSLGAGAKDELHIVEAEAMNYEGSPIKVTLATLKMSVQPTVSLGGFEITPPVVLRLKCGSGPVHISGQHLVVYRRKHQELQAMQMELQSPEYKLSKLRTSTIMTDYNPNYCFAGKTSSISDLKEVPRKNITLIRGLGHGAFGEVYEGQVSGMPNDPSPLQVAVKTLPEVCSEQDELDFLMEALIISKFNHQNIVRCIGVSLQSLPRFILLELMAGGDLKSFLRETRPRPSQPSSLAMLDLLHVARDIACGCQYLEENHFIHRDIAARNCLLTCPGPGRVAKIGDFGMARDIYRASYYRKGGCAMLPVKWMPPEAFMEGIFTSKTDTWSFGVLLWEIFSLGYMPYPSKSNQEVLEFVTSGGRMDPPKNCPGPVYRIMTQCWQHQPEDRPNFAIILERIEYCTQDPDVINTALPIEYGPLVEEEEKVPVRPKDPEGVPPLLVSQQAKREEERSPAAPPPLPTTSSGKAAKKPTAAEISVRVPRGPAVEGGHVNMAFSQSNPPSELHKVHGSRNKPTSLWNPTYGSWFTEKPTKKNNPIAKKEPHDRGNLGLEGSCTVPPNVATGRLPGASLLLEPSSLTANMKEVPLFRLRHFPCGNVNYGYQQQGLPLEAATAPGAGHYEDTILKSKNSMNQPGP
T2 sequence (Q16832 22-855): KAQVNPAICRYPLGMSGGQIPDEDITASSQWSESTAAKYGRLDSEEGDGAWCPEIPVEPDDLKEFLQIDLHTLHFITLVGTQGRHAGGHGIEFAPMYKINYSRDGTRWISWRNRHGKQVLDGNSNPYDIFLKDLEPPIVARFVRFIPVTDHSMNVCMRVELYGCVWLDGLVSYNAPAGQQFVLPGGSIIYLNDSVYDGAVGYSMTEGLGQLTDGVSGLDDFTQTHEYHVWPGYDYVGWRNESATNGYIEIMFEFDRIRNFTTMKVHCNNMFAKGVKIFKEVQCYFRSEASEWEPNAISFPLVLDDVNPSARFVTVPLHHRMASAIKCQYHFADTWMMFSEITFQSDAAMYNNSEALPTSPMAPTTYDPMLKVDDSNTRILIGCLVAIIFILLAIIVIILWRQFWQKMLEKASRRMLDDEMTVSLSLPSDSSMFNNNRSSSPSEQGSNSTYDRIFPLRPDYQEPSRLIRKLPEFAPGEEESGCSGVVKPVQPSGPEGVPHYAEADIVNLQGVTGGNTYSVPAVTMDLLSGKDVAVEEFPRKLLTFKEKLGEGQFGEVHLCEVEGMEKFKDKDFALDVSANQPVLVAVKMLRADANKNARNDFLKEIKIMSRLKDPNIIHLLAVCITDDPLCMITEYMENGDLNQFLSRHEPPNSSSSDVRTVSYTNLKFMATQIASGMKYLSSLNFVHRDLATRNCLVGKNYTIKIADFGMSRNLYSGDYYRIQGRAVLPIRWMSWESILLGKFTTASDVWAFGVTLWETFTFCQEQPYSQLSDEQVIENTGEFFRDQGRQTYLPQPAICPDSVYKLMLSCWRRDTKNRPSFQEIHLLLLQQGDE
T3 sequence (Q08345 19-913): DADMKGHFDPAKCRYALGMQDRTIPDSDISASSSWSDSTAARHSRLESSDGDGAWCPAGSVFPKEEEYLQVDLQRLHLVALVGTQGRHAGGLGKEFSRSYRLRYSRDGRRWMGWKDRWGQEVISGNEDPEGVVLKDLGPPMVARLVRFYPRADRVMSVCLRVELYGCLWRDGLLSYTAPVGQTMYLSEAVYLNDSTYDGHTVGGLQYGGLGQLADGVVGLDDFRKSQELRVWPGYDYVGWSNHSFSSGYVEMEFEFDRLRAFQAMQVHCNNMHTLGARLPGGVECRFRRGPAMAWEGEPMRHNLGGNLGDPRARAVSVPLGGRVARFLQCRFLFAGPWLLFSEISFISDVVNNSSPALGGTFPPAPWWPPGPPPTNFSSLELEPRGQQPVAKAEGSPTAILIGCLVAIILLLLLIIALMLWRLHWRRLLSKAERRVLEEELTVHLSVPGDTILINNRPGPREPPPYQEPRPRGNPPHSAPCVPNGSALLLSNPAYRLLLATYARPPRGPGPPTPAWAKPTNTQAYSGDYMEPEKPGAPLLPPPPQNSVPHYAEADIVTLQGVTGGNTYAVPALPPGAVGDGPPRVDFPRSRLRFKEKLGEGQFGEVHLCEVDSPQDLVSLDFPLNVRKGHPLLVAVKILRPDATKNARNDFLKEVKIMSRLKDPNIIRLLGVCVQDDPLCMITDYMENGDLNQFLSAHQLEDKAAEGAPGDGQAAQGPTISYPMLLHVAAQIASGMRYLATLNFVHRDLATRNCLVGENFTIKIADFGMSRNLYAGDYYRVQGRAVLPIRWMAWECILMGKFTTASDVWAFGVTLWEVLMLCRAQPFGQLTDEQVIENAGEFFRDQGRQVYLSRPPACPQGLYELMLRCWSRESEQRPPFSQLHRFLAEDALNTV
T1 sequence (P30530 26-894): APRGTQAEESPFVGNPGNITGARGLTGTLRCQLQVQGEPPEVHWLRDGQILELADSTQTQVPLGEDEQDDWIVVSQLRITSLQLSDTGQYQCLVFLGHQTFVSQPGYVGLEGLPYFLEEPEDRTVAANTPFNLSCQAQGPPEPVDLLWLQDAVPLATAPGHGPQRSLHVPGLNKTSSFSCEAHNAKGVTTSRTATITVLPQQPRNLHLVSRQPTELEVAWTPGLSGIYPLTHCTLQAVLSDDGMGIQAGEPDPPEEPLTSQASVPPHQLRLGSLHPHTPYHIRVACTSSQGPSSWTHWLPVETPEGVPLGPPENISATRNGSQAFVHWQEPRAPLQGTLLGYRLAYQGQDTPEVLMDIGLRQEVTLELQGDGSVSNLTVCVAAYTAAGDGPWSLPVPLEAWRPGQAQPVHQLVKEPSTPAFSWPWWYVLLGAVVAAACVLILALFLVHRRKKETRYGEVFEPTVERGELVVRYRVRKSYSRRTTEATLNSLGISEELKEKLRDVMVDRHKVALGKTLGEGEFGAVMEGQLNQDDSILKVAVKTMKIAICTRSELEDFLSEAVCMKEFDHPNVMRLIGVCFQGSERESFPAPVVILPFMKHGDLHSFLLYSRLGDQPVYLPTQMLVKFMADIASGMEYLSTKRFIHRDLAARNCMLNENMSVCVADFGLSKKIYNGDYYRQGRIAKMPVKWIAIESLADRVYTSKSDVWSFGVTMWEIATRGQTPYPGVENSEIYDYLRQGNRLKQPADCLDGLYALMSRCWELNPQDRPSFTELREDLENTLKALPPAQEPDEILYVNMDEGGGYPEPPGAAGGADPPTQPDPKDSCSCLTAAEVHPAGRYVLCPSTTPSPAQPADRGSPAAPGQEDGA

Question: Which results are given for `C[C@H]1CNC(=O)c2cnn3ccc(nc23)N[C@H](C)c2cc(F)ccc2O1` [Compound 1, (7S,13R)-11-fluoro-7,13-dimethyl-6,7,13,14-tetrahydro-1,15-ethenopyrazolo[4,3-f][1,4,8,10]benzoxatriazacyclotridecin-4(5H)-one]?
Answer: IC50 [1]: 149 nM; ALK phosphorylation, % of the control level ([2]; 15 mg/kg BID 7 days, 3 hours post oral administration): < 10%; ALK phosphorylation, % of the control level ([2]; 15 mg/kg BID 7 days, 12 hours post dosing): about 21%; ALK phosphorylation, % of the control level ([2]; 50 mg/kg BID 7 days, 3 hours post oral administration): < 5%; ALK phosphorylation, % of the control level ([2]; 50 mg/kg BID 7 days, 12 hours post dosing): about 10%; IC50 [3]: 23 nM; IC50 [4]: 1 to 3 nM; IC50 [5]: 1 to 3 nM; IC50 [6]: 5.7 nM; CD44 expression level [7]: down-regulates CD44 expression; also recorded: suppressed CD44 expression level in H2228 cells in a concentration-dependent manner; IC50 [8]: 1240 nM; IC50 [9]: 12 nM; IC50 [10]: 47.1 nM
